PMC12478587

Assays:
[1] = tested on: FTC_1_Full (DNA, aptamer) GGAGGCTCTCGGGACGACGCTGAGTCGTTGGCAAGGTATTGAGAGAGTGTCGTCCCGATGCTGCAATCGTAA; experiment: ITC; conditions: Na+ (PBS), Mg2+ 2 mM, 25 °C, 20 µM aptamer in cell; for binding: 200 µM compound in syringe
[2] = tested on: FTC_1_EAB, E-AB sensor (DNA, aptamer) CTGAGTCGTTGGCAAGGTATTGAGAGAG; experiment: electrochemical aptamer-based sensor (square wave voltammetry); conditions: for binding: negligible signal 100 nM to 10 µM
[3] = tested on: FTC_1_EAB (FTC_1_5'trunc19_3'trunc25), unlabelled (DNA, aptamer) CTGAGTCGTTGGCAAGGTATTGAGAGAG; experiment: ITC; conditions: Na+ (PBS), Mg2+ 2 mM, 25 °C, 20 µM aptamer in cell; for binding: 200 µM compound in syringe
[4] = tested on: FTC_1_EAB_Scramble (DNA, other) GATATGGGAGAACGCATTGCGTGGTATG; experiment: not stated (ITC series, Figure S7)
[5] = tested on: FTC_2_Full (DNA, aptamer) GGAGGCTCTCGGGACGACCATGAGTCGTTGGTAAGGTATTAGGAAGCGGTCGTCCCGATGCTGCAATCGTAA; experiment: ITC; conditions: Na+ (PBS), Mg2+ 2 mM, 25 °C, 20 µM aptamer in cell, 200 µM FTC in syringe
[6] = tested on: FTC_1_Fluor (FTC_1_5'trunc3_3'trunc14) (DNA, aptamer) GGCTCTCGGGACGACGCTGAGTCGTTGGCAAGGTATTGAGAGAGTGTCGTCCCGA; experiment: fluorescence, quencher strand displacement; conditions: Na+ (PBS), Mg2+ about 1 mM; 50% human plasma; Q-Cap_1 (3'-BHQ2) displaced; 100 nM aptamer, 150 nM Q-Cap_1; apparent
[7] = tested on: FTC_5_Full (DNA, aptamer) GGAGGCTCTCGGGACGACGGCAAGTCGTTGGTAAGGTATTAATCTGGTGTCGTCCCGATGCTGCAATCGTAA; experiment: ITC; conditions: Na+ (PBS), Mg2+ 2 mM, 25 °C, 20 µM aptamer in cell, 200 µM FTC in syringe
[8] = molecular target: bovine serum albumin (BSA) (UniProt P02769 25-607); experiment: ITC; heat change at mole ratios <0.1; BSA as ligand; ITC: PBS + 2 mM MgCl2 (SELEX buffer pH 7.2); general ITC protocol 20 uM aptamer in cell, 200 uM target in syringe; temperature not given; conditions: protein: commercial; stem-loop, stem S1 13 bp
Sequence of bovine serum albumin (BSA) (P02769 25-607): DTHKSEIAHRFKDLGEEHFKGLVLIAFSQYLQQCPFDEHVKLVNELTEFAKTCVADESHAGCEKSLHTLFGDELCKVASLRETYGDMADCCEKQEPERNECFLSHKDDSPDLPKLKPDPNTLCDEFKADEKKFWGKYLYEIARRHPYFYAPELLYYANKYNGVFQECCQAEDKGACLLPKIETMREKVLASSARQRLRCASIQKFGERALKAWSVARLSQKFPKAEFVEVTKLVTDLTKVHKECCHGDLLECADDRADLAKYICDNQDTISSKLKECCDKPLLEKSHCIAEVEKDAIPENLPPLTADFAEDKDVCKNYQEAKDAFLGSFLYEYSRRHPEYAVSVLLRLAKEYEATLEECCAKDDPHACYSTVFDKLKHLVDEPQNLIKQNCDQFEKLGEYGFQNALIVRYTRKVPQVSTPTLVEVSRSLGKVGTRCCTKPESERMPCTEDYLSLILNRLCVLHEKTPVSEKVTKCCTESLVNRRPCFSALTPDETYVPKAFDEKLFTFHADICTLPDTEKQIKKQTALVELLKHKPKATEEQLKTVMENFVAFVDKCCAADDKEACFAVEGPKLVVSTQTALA

`Nc1nc(=O)n([C@@H]2CS[C@H](COP(=O)(O)OP(=O)(O)OP(=O)(O)O)O2)cc1F` was tested, and the binding [1] was “no” and the binding ([2]; minimal binding at saturation) was “weak”.

`Nc1ccn([C@@H]2O[C@H](CO)[C@@H](O)[C@H]2O)c(=O)n1` was tested, and the binding [3] was “no” and the binding [1] was “no”.

`Nc1nc(=O)n([C@@H]2O[C@H](CO)[C@@H](O)[C@H]2O)cc1F` was tested, and the binding [3] was “no” and the binding [1] was “no”.

With `Nc1ccn([C@@H]2CS[C@H](CO)O2)c(=O)n1` the binding ([2]; binding above 10 µM, gain 50% lower than FTC) was “weak”.

For `Nc1nc(=O)n([C@@H]2CS[C@H](CO)O2)cc1F`, the Kd ([3]; 200 µM FTC in syringe) was 10.9 ± 0.3 µM, the binding [4] was “no” and the dissociation constant ([1]; 200 µM FTC in syringe) was 150 ± 40 nM. The binding [5] was “yes”, the EC50 ([2]; Na+ (PBS), phosphate-buffered saline, gold electrode, Hill coefficient 1, apparent) was 10.4 ± 0.6 µM and the EC50 [6] was 3.536 ± 0.069 µM. The binding [7] was “yes”.

In the case of `Nc1cc[nH]c(=O)n1`, the binding [3] is reported as “no” and the binding [1] is reported as “no”.

B1: FTC_1 (taken as FTC_1_Full) (structured_DNA)
DNA: GGAGGCTCTCGGGACGACGCTGAGTCGTTGGCAAGGTATTGAGAGAGTGTCGTCCCGATGCTGCAATCGTAA
B1: binds [8].
